# In the supplement of paper PMC12076712:
# Assays:
# Assay in all cases: pIC50, kinobeads binding competition
# UniProt Q9Y2H1 = molecular target: UniProt Q9Y2H1
# In short: (§1)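 pIC50 was obtained by fitting fold changes against vehicle to logistic dose-response curves with the R drc package, using biological duplicates. Kinobeads-bound proteins were digested and measured by TMT10 LC-MS/MS. Before this, either living Jurkat cells received nine compound concentrations (top 30 μM, 1:4 steps) for 60 min at 37 °C prior to lysis, or Jurkat lysate or a 1:1:1:1 HEK293/K-562/HepG2/placenta lysate mix received nine concentrations (top 30 μM, 1:5 steps) for 60 min at 4 °C.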
# SRPK1 = SRPK1 (UniProt Q96SB4)
# In short: as §1
# UniProt P57059 = conditions: cell material: Lysate mix
# In short: as §1
# UniProt Q00537 = molecular target: UniProt Q00537
# In short: as §1
# UniProt Q9P289 = molecular target: UniProt Q9P289
# In short: as §1
# UniProt Q99683 = molecular target: T1, UniProt Q99683
# T1 sequence (whole entry): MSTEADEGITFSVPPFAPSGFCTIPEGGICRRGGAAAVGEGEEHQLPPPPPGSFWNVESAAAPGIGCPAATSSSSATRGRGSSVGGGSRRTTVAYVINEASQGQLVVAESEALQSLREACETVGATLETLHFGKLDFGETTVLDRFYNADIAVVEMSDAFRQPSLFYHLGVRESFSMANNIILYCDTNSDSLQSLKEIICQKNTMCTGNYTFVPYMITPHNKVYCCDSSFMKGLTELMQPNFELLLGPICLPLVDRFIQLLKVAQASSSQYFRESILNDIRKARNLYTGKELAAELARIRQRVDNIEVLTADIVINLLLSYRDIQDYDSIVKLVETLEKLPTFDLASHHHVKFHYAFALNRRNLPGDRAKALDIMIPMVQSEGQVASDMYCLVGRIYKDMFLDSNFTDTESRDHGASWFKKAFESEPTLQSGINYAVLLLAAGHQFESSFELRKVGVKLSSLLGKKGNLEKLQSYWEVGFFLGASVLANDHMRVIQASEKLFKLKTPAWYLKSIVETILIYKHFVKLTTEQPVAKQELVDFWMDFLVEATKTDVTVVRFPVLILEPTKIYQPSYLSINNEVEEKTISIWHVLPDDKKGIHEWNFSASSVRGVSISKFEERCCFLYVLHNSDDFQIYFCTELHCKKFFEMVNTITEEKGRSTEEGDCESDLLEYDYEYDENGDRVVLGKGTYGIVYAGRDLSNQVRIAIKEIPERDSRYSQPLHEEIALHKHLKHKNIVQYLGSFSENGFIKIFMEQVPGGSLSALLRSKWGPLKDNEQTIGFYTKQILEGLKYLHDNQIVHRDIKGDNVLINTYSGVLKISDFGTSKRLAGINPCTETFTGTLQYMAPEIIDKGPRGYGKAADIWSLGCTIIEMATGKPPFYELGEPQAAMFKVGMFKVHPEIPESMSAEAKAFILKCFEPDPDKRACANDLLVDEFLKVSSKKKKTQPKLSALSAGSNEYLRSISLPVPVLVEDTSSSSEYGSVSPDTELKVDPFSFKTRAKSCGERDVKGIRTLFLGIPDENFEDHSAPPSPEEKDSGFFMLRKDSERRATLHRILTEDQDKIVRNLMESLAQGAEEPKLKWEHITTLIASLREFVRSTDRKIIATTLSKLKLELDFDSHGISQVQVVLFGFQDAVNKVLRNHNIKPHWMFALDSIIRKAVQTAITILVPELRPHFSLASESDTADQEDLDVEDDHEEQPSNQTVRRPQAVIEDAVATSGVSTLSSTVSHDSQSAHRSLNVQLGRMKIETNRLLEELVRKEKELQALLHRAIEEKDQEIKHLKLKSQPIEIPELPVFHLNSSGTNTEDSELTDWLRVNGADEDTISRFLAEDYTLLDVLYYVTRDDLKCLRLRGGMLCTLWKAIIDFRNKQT
# In short: as §1
# ILK = molecular target: T2, ILK (UniProt Q13418)
# T2 sequence (whole entry): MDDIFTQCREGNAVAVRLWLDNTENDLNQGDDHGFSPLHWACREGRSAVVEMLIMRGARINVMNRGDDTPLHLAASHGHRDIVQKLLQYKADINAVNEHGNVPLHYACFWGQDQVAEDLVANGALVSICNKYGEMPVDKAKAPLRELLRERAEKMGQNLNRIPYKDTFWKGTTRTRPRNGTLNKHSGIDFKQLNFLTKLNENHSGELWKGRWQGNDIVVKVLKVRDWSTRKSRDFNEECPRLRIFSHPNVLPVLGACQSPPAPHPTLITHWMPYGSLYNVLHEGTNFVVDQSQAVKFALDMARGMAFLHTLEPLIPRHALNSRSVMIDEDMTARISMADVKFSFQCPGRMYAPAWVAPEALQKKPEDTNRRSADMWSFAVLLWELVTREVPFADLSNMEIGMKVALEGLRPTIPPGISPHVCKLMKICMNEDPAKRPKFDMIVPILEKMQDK
# In short: as §1
# PRKACB = PRKACB (UniProt P22694)
# In short: as §1
# Chain of UniProt Q9P289 (Q9P289 whole entry, looked up): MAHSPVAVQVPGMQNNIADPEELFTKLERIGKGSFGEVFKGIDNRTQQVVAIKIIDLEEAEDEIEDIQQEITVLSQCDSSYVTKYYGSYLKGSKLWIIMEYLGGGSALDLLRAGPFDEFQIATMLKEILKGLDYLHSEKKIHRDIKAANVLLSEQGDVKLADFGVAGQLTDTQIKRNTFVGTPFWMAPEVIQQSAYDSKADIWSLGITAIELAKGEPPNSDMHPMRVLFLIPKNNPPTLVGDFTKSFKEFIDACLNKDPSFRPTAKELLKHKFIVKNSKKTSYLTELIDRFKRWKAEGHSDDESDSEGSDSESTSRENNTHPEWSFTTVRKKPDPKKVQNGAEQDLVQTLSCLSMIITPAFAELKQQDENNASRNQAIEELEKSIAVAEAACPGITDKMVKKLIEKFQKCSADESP
# Chain of SRPK1 (Q96SB4 whole entry): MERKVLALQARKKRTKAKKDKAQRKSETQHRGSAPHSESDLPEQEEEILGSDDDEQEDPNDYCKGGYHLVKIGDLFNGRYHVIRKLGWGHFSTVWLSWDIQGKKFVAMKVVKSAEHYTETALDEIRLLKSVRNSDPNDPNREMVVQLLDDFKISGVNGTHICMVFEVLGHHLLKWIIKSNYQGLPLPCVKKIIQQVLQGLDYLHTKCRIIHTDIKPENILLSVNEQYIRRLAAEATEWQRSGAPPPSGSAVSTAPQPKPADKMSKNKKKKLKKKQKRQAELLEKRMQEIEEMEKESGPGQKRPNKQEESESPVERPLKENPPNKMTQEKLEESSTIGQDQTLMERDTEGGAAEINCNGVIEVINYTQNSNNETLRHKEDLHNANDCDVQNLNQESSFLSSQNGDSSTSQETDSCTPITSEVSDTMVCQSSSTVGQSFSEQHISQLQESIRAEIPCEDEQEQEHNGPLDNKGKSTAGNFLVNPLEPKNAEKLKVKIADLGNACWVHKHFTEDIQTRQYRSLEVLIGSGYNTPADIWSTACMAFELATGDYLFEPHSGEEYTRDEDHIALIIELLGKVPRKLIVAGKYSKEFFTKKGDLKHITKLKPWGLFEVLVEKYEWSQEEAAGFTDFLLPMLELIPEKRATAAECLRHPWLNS
# Chain of UniProt Q9Y2H1 (Q9Y2H1 whole entry, looked up): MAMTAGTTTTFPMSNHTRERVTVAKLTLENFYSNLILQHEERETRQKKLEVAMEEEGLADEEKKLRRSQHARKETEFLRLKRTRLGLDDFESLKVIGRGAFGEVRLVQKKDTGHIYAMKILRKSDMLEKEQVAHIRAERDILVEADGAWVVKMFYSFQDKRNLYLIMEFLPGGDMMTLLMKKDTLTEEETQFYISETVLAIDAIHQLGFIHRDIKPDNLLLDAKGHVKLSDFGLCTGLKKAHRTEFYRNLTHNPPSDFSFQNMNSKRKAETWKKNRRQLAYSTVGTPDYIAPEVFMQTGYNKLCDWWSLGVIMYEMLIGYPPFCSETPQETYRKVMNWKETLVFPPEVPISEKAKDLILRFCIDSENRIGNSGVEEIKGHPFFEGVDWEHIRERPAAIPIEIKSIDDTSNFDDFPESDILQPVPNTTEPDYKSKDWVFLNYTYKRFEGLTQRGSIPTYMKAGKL
# Chain of UniProt P57059 (P57059 whole entry): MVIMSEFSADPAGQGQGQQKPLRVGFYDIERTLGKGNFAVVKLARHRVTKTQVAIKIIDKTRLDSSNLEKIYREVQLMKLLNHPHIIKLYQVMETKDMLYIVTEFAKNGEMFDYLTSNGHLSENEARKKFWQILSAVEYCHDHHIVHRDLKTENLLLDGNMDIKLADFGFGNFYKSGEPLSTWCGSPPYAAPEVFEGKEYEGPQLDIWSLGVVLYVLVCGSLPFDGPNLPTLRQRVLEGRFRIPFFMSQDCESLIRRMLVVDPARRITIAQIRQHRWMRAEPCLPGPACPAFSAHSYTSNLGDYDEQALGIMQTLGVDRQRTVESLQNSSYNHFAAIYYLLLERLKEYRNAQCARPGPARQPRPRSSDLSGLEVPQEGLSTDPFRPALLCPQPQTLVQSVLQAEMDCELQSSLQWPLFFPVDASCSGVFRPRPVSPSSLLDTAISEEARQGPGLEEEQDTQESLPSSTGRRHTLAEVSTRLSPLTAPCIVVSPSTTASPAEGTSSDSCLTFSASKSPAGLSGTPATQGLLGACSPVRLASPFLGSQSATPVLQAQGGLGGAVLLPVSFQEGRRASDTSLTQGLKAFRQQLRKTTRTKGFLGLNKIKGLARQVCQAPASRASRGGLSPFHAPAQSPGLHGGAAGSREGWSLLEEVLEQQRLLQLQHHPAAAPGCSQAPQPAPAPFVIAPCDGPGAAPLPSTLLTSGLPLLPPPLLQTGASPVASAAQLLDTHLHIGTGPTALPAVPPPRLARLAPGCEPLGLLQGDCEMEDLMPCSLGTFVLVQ
# Chain of UniProt Q00537 (Q00537 whole entry, looked up): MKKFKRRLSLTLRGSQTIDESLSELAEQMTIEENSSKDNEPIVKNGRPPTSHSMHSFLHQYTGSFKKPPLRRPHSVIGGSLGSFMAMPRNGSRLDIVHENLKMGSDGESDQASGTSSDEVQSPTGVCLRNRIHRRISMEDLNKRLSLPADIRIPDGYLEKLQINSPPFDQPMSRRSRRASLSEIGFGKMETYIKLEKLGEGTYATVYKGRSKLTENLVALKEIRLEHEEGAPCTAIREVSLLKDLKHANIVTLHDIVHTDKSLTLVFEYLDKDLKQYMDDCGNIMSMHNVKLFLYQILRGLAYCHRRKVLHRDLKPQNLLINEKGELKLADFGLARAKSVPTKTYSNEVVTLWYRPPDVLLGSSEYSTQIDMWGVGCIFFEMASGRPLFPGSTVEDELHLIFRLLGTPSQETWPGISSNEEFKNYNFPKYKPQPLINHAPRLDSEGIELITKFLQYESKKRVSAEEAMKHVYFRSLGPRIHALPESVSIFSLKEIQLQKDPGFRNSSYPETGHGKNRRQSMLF
Structure (SMILES),pIC50 (UniProt Q9Y2H1; cell material: Lysate mix),pIC50 (UniProt P57059),pIC50 (UniProt Q00537; cell material: Lysate mix),pIC50 (UniProt Q9P289; cell material: Jurkat lysate),pIC50 (UniProt Q9P289; cell material: Lysate mix),pIC50 (UniProt Q99683; cell material: Lysate mix),pIC50 (ILK; cell material: Lysate mix),pIC50 (PRKACB; cell material: Jurkat cells),pIC50 (SRPK1; cell material: Lysate mix),pIC50 (PRKACB; cell material: Lysate mix),pIC50 (UniProt Q9Y2H1; cell material: Jurkat cells),pIC50 (SRPK1; cell material: Jurkat cells),pIC50 (UniProt Q00537; cell material: Jurkat cells),pIC50 (UniProt Q00537; cell material: Jurkat lysate),pIC50 (UniProt Q99683; cell material: Jurkat cells),pIC50 (UniProt Q99683; cell material: Jurkat lysate),pIC50 (ILK; cell material: Jurkat cells),pIC50 (ILK; cell material: Jurkat lysate),pIC50 (PRKACB; cell material: Jurkat lysate),pIC50 (UniProt Q9Y2H1; cell material: Jurkat lysate),pIC50 (UniProt Q9P289; cell material: Jurkat cells)
CCNC(=O)c1cc(Nc2cc(C3CC3)[nH]n2)nc(N2CCN(Cc3ccc(S(=O)(=O)F)cc3)CC2)n1,–,< 4.52,5.52,–,–,< 4.52,< 4.52,–,–,–,–,–,–,–,–,–,–,–,–,–,–
C#CCNC(=O)c1cc(Nc2cc(C3CC3)[nH]n2)nc(N2CCN(Cc3ccc(S(=O)(=O)F)cc3)CC2)n1,–,< 4.52,5.7,–,< 4.52,< 4.52,–,–,–,–,6.28,< 4.52,6.39,5.11,5.39,< 4.52,5.41,< 4.52,< 4.52,5.56,6.36
C#CCNC(=O)c1cc(Nc2cc(C)[nH]n2)nc(N2CCN(Cc3ccc(S(=O)(=O)F)cc3)CC2)n1,4.77,–,< 4.52,–,–,–,< 4.52,–,–,–,–,–,–,–,–,–,–,–,–,–,–

# Continued, in another order:
pIC50 (UniProt Q9Y2H1; cell material: Lysate mix),pIC50 (UniProt P57059),pIC50 (UniProt Q00537; cell material: Lysate mix),pIC50 (UniProt Q9P289; cell material: Jurkat lysate),pIC50 (UniProt Q9P289; cell material: Lysate mix),pIC50 (UniProt Q99683; cell material: Lysate mix),pIC50 (ILK; cell material: Lysate mix),pIC50 (PRKACB; cell material: Jurkat cells),pIC50 (SRPK1; cell material: Lysate mix),pIC50 (PRKACB; cell material: Lysate mix),Structure (SMILES),pIC50 (UniProt Q9Y2H1; cell material: Jurkat cells),pIC50 (SRPK1; cell material: Jurkat cells),pIC50 (UniProt Q00537; cell material: Jurkat cells),pIC50 (UniProt Q00537; cell material: Jurkat lysate),pIC50 (UniProt Q99683; cell material: Jurkat cells),pIC50 (UniProt Q99683; cell material: Jurkat lysate),pIC50 (ILK; cell material: Jurkat cells),pIC50 (ILK; cell material: Jurkat lysate),pIC50 (PRKACB; cell material: Jurkat lysate),pIC50 (UniProt Q9Y2H1; cell material: Jurkat lysate),pIC50 (UniProt Q9P289; cell material: Jurkat cells)
< 4.52,< 4.52,< 4.52,< 4.52,< 4.52,< 4.52,< 4.52,< 4.52,–,–,O=C(NCCNC(=O)c1cc(Nc2cc(C3CC3)[nH]n2)nc(N2CCN(Cc3ccc(S(=O)(=O)F)cc3)CC2)n1)OC1CC/C=C/CCC1 (stereo not given),5.79,< 4.52,5.68,< 4.52,4.75,< 4.52,< 4.52,< 4.52,< 4.52,–,–
< 4.52,–,< 4.52,–,< 4.52,< 4.52,< 4.52,–,< 4.52,< 4.52,Cc1cc(Nc2cc(C(=O)NCCNC(=O)OC3CC/C=C/CCC3)nc(N3CCN(Cc4ccc(S(=O)(=O)F)cc4)CC3)n2)n[nH]1 (stereo not given),–,–,–,–,–,–,–,–,–,–,–
< 4.52,< 4.52,–,–,–,4.69,–,–,–,< 4.52,CCNC(=O)c1cc(Nc2cc(C)[nH]n2)nc(N2CCN(Cc3ccc(S(=O)(=O)F)cc3)CC2)n1,–,–,–,–,–,–,–,–,–,–,–
